For data set [1], the system named is White blood cell (WBC) counts. Kind of data set: White blood cell (WBC) toxicity in mice. The data set is classed as in vivo. The settings on record: FIG. 10. The text has this:
White blood cell (WBC) counts are important for immune mediated tumor clearance. In order to assess the level of WBC toxicity of induced by A-Platin relative the WBC lose was quantified in mice following treatment with drug along and drug administered in conjunction with radiation.

The test system of data set [2] is Primary human tonsil epithelial cells (HTE). In words: Colony forming assay (crystal violet, A540) in primary HTE cells. The conditions noted are these: FIG. 7. It counts as cell-based.
The test system of data set [3] is SCC1 cells (HPV-human HNSCC). Kind of data set: Colony forming assay (crystal violet, A540) in SCC1 cells. It counts as cell-based. The conditions noted are these: 10-500 μM, p<0.03 compared to control, FIG. 7. On the procedure: (§1) In order to further assess the effect of A-platin on cancer cell growth, colony forming assays using Head and Neck Squamous Cell Carcinoma (HNSCC) were preformed. Briefly, 10,000 cells were plated in triplicate in 6-well plates per treatment condition. The next day cells were treated with the cisplatin, A-platin, or G-platin at the variable doses. On day 6 from plating, cells were fixed in 70% ethanol and stained with 0.5% crystal violet in 10% ethanol. After sufficient washing and drying, cells were destained in 25% glacial acetic acid, and absorbance of 100 uL of each destain solution was read on a SpectraMax plate reader at 540 nm (A540). A540 is an indirect measure of the amount of crystal violet per well, and thus the number of cells per well.

For data set [4], the system named is SCC47 cells (HPV+ human HNSCC). In words: Colony forming assay (crystal violet, A540) in SCC47 cells. The data set is classed as cell-based. The conditions noted are these: FIG. 7. The method, then:
as §1

On to `N[C@@H](Cc1ccc(N=C(O)CCC(=O)[O][Pt]([NH2])([NH2])([OH])([Cl])[Cl])cc1)C(=O)O` [AT-Platin], for which the “white blood cell loss” value in data set [1] (drug treatment alone groups) and in data set [1] (drug+radiation groups) was “less white blood cell loss” throughout.
Take `N.N.[Cl][Pt][Cl]` [Cisplatin, cis-diamminedichloroplatinum(II), reference compound]: in data set [2] (10-500 μM, p<0.04 compared to control), the “cell number (A540)” value is on record as “reduced cell number”. Moreover, the “cell number relative to control (A540)” value in data set [3] is on record as “reduced cell number relative to control”; in data set [4] (50-500 μM, p<0.0007 compared to control), “reduced cell number relative to control”.
`[NH2][Pt]([NH2])([OH])([Cl])([Cl])[O]C(=O)CCC(O)=N[C@@H]1C(O)[C@H](O)C(CO)O[C@@H]1O` (some centres unmarked) [G-platin]: in data set [2] (1-500 μM, p<0.007 compared to control), the “cell number (A540)” value was “reduced cell number”. Also, the “cell number relative to control (A540)” value in data set [3] is given as “reduced cell number relative to control”; in data set [4] (10-500 μM, p<0.008 compared to control) it was “reduced cell number relative to control”.

(Values after patent publication US10383943B2, “Compositions and related methods for the treatment of cancer” (South Dakota Board of Regents, priority 2016, dated 2019).)
